Measurements as given in patent publication US9856732B2, “Tracers” (RESTRACK AS, priority 2012, dated 2018).

Tests used:
[1] = Oil/water partition coefficient from flooding experiment on silica-packed column at residual oil saturation; type: physicochemical; details: 80° C., oil 2 and water 2
Protocol: Structural formulas of examples of compounds from four groups of fluorinated benzyl alcohols tested are shown herein, including in FIG. 1. The compounds could be analyzed using gas chromatography with mass spectrometric detection (GC-MS) in produced water after clean-up and pre-concentration of the water samples. Detection limits of 50 ng/l (ppt) could be obtained depending on the level of interferences from the sample matrix. Several compounds from the four groups were selected and tested for thermal stability, flooding properties, and adsorption to rock materials. In addition, two pilot field tests were initiated. Some results from the laboratory tests are shown in Table 1 and in FIG. 2 to FIG. 10. Partition coefficients were measured at 80° C., oil 2 and water 2.
A still further feature of the benzyl alcohol compounds used in the various aspects of the present invention is their highly suitable partition coefficients. For example, compounds of formula i) or preferred compounds as described herein may have partition coefficients between 1.0 and 8.0. The partition coefficients should not be too high because the partitioning tracers then will be retained too much compared to the passive water tracer. Preferable values for the partition coefficients will be between 1.2 and 7, preferably between 1.3 and 5. In all cases referred to herein partition coefficients are measured at 80° C., oil 2 and water 2, unless otherwise stated.
To test the dynamic properties of the tracer candidate an experimental setup containing a residual oil saturated column was used. […] The column was packed with 70 μm silica beads. Dead crude oil was pumped through the column after which artificial formation water was pumped through the system until residual oil saturation was reached. The tracer candidate was then co-injected with tritiated water (HTO) as a pulse into the water flow. The experiments were conducted with different oil types, different water compositions and at several temperatures.

[2] = Biodegradability in seawater (OECD 306)
Protocol: Tracers must be stable in the harsh reservoir environment, thus their results in the seawater biodegradation component of the HOCNF scheme “OECD (306 1999) guideline for testing chemicals, biodegradation in seawater” often show less than 20% biodegradation ensuring that they automatically are placed in the red category.
(§1) The most important environmental properties were tested on several example compounds. These are biodegradability in seawater and toxicity screening for Skeletonema Costatum. The latter gives a good general indication of the total toxicity of a chemical and in combination with the biodegradability gives a strong indication of the total impact of the environment.

[3] = tested on: Skeletonema Costatum; experiment: Toxicity screening for Skeletonema Costatum (ISO 10253; 2006); type: cell-based; details: exposure of 72 hr
From the text: In addition to biodegradation in seawater other tests to be conducted are the toxicity test with Acardia Tonsa (ISO14669; 1999), providing a median lethal concentration (LC50) after an exposure of 48 hr, toxicity test with Skeletonema Costatum (ISO 10253; 2006), providing a median effect concentration (EC50/EL50) after an exposure of 72 hr, toxicity test with Scophthalmus Maximus (PARCOM 2006), providing the mortality of fish after 96 hr at EC50 value and bioaccumulation potential (OECD Guidelines for Testing of Chemicals, 117), providing the logarithm of n-octanol/water partition coefficient.
as §1

Structure (SMILES)	partition coefficient K [1]	Biodegradability BOD28 [2]	Toxicity EL50 [3]
OCc1c(F)ccc(F)c1F [2,3,6-TFBOH, 2,3,6-trifluorobenzyl alcohol]	1.9	2%	
OCc1c(F)cc(F)cc1F [2,4,6-TFBOH, 2,4,6-trifluorobenzyl alcohol]	2.4	0-3%	
OCc1c(F)cccc1F [2,6-DFBOH, 2,6-difluorobenzyl alcohol]	1.5	0%	
OCc1ccccc1F [2-FBOH, 2-fluorobenzyl alcohol]	1.5		
OCc1ccc(F)c(F)c1 [3,4-DFBOH, 3,4-difluorobenzyl alcohol]	2.1		
OCc1cc(F)cc(F)c1 [3,5-DFBOH, 3,5-difluorobenzyl alcohol]	2.9	2%	
OCc1ccc(F)cc1 [4-FBOH]		3%	Ca 10 mg/L
